This is an account of results in US20190060371A1, “METHODS FOR CONTROLLED PROLIFERATION OF VESTIBULAR STEM CELLS / GENERATING INNER EAR HAIR CELLS USING WNT AND TGFBETA-INHIBITION” (Frequency Therapeutics, Inc., priority 2016, published 2019).

“Also recorded” adds a separate entry of the source.

Experiment [1] deals with supporting cell/stem cell. The experiment can be described thus: Expansion of Sox2 and Sox9 positive cells from vestibular organs in 3D Matrigel culture. Particulars: for colony size compared to Wnt agonism alone (FIG. 5): TGF-beta inhibitor added to CHIR99021 in a background of GF; for cell growth when added to Wnt agonism (C) (total cells, FIG. 2): added to GF+C (CHIR99021), D10. The format is cell-based, neonatal mice. Here is the method: Isolation of stem cells from the inner ear: All animal studies were conducted under an approved institutional protocol according to National Institutes of Health guidelines. For experiments with neonatal mice (postnatal days 1-3), the vestibular organs were dissected in HBSS. The vestibular organs were then treated with TrypLE (Life Technologies) for 15-20 minutes at […]. Single cells obtained by mechanical trituration were filtered (40 μm) and suspended in Matrigel (Corning) for 3D culture. Cells were cultured in a 1:1 mixture of DMEM and F12, supplemented with Glutamax (GIBCO), N2, B27 (Invitrogen), EGF (50 ng/mL; Chemicon), bFGF (50 ng/mL; Chemicon), IGF1 (50 ng/mL; Chemicon) and a composition comprising the following agents: CHIR99021 (a Wnt activator), 616452 (a TGF-beta inhibitor), Noggin (a BMP4 inhibitor), VPA (HDAC inhibitor), and combinations there. Media were changed every other day. Total cells were quantified after 10 days (D10) in culture in multiple conditions. (i) GF; ([…]6); wherein On D10, cell colonies were dissociated into single cells using TrypLE (Gibco). The cells were then stained with propidium iodide (PI) and analyzed using a flow cytometer expression. The number of cells were quantified. […] Also on D10, cells were stained with Sox2 (data not shown), as well as Sox9, Rhodamine Phalloidin (stains F-actin), and DAPI (nuclear stain) (see FIG. 3) to assess the identity of the cell populations. Colonies were visualized using confocal microscopy. Sox2 and Sox9 are stem cell markers in the balance organs.

Another experiment concerns progenitor colonies. As to the kind of experiment: Differentiation of Sox2 and Sox9 progenitor cell colonies into hair cells. The format is cell-based, neonatal mice. Particulars: gamma secretase inhibition; confocal images. As to the method: Isolation of stem cells from the inner ear: All animal studies were conducted under an approved institutional protocol according to National Institutes of Health guidelines. For experiments with neonatal mice (postnatal days 1-3), the vestibular organs were dissected in HBSS. The vestibular organs were then treated with TrypLE (Life Technologies) for 15-20 minutes at […]. Single cells obtained by mechanical trituration were filtered (40 μm) and suspended in Matrigel (Corning) for 3D culture.
Differentiation of Sox2 and Sox9 Progenitor Cells Stem cell colonies were differentiated in a 1:1 mixture of DMEM and F12, supplemented with Glutamax (GIBCO), N2, B27 (Invitrogen), with the addition of molecules that drive differentiation, or after removal of growth factors without the addition of molecules that drive differentiation. Small molecules were added to the culture to test their effect on differentiation.
Indicative of hair cells, the cells express Myo VIIa (green) and have actin hair bundles (red).

Turning to `NC(=O)c1ccc(-c2nc(-c3ccc4c(c3)OCO4)c(-c3ccccn3)[nH]2)cc1` [SB-431542, 4-[4-(1,3-Benzodioxol-5-yl)-5-(2-pyridinyl)-1H-imidazol-2-yl]-benzamide], in experiment [1], the “colony size compared to Wnt agonism alone (FIG. 5)” value was “larger supporting cell/stem cell colonies”. Consider `Cc1cccc(-c2n[nH]cc2-c2ccc3ncccc3n2)n1` [Compound 616452, 2-(3-(6-Methylpyridin-2-yl)-1H-pyrazol-4-yl)-1,5-naphthyridine], for which, in experiment [1] (flow cytometer), the “cell growth when added to Wnt agonism (C) (total cells, FIG. 2)” value is “improved stem cell growth”. Consider `Cc1c[nH]c(-c2cnc(NCCNc3ccc(C#N)cn3)nc2-c2ccc(Cl)cc2Cl)n1` [CHIR99021], for which the “supporting cell/stem cell growth (total cells, FIG. 2)” value in experiment [1] (added to GF (EGF, FGF, IGF), 10 days (D10), flow cytometer) is “promoted supporting cell/stem cell growth”. For the same molecule, the “supporting cell/stem cell growth and colony formation (FIG. 5)” value in experiment [1] (in a background of GF) is “promoted supporting cell/stem cell growth and colony formation”.

Turning to `CCCC(CCC)C(=O)O` [VPA, valproic acid], the “cell growth when added to Wnt agonism (C) (total cells, FIG. 2)” value in experiment [1] (flow cytometer) is “inhibited cell growth”. With `Cc1cccc(-c2nn(C(=S)Nc3ccccc3)cc2-c2ccnc3ccccc23)n1` [Compound A-83-01, 3-(6-Methylpyridin-2-yl)-4-(4-quinolyl)-1-phenylthiocarbamoyl-1H-pyrazole], the “colony size compared to Wnt agonism alone (FIG. 5)” value in experiment [1] is recorded as “larger colonies”; in experiment [1] (listed as A 83-01), “larger supporting cell/stem cell colonies”.

Regarding `C[C@H](NC(=O)[C@@H](O)c1cc(F)cc(F)c1)C(=O)N[C@@H]1C(=O)N(C)c2ccccc2-c2ccccc21` [LY411575], in the experiment with progenitor colonies, the “conversion of colonies into hair cells (Myosin VIIA, actin hair bundles; FIG. 4)” value is “differentiated into high purity populations of hair cells; also recorded: converted into high purity hair cell populations”.
